A value given as a limit tells only on which side of the number the result lay.

This is an account of results in a melting point compilation (Tetko et al.; mined from patent text by program, amines drawn as free bases though some values may be those of a salt).

Take `CCNC(=O)c1ccc(N2CCN(Cc3cc(Cc4ccccc4)c4c(c3)NC(=O)C(C)O4)CC2)cc1` (stereo not given): the melting point (in general, the temperature, or range, at which the solid turns liquid) was 198 to 206 °C.

`CC1=C(C(=O)OC(C)(C)C)C(c2cc(Cl)ccc2Cl)C(C(=O)OC(C)(C)C)=C(C)N1` came in with a melting point of 181 to 183 °C. The same measure for `CCOC(=O)CC(=O)c1cc(F)c(N2CCNCC2)nc1Nc1ccc(F)cc1F`: 121 to 123 °C. The same measure for `CCOC(=O)C1=C(C)NC(=S)N(C(=O)OCc2ccccc2)C1c1cccc([N+](=O)[O-])c1` (stereo not given): 122 to 124 °C; for `Cn1cnnc1C(O)(c1ccc(Cl)cc1)c1ccc2c(c1)c(-c1cccc(Cl)c1)cc(=O)n2Cc1ccc(C#N)cc1` (stereo not given): 185 °C; for `Cc1nc(Nc2nc3ccccc3[nH]2)nc(O)c1CC(=O)O`: more than 300 °C. With `CNc1nc(Nc2ccc(CCNC(=O)OC(C)(C)C)cc2)ncc1[N+](=O)[O-]`, the melting point lay in the range of 70 to 71 °C. The same measure for `Cc1c(C)n(Cc2ccccc2)c(=O)n(CCCCl)c1=O`: 72 to 74 °C; for `Cc1ccc(F)cc1NC(=O)CN1CCNC(CO)C1` (stereo not given): 128 °C.

Take `COC(=O)CC(=O)N1CCC(c2ccc(OC)c(OC3CCCC3)c2)CC1`: the melting point lay in the range of 78 to 79 °C. As for `CCCn1c(-c2ccccc2)nc2cc(C(=O)OC)ccc21`, the melting point worked out at 79.8 °C. On to `CN(C)c1cccc(CN2C(=O)C3(COc4cc5c(cc43)OCCO5)c3ccccc32)n1` (stereo not given), for which the melting point fell in the range of 196 to 197 °C. The same measure for `OCc1nccc(N2CCOCC2)n1`: 76 to 78 °C; for `Cn1cnnc1C(O)(c1ccc(Cl)cc1)c1ccc2c(c1)c(CCc1cccc(Cl)c1)cc(=O)n2C` (stereo not given): 200 °C. The same measure for `O=C(N[C@H](CC1CCCCC1)CN1CCN(c2ncccn2)CC1)C1CCCCC1`: 121 to 123 °C; for `CN(CCOc1ccc(C=CC(=O)N2CCc3c([nH]c4ccccc34)C2c2ccc3c(c2)CCO3)cc1)C(=O)OC(C)(C)C` (stereo not given): 110 °C. The same measure for `CCC(C)c1cc(C=O)c(O)c(S(C)(=O)=O)c1` (stereo not given): 68 to 70 °C; for `O=Cc1cc(-c2ccccc2)c2ccc3c(-c4ccccc4)cc(C=O)nc3c2n1`: 165 to 170 °C. In turn, `COc1cc(COc2cc(/C=C/C(=O)O)n(-c3ccccc3)n2)ccc1OCc1nc(-c2ccccc2)oc1C` gave a melting point of 194 to 195 °C. The same measure for `COc1ccc(COC/C(=C/c2ccc(C(=O)O)cc2)Cn2ccnc2)cc1`: 120 to 122 °C. The same measure for `Cc1cc(C(=Cc2nnnn2C)c2ccc(F)c(C)c2)ccc1F`: 138 to 139 °C; for `CC(=O)NC1(c2ccc(CCl)cc2)CC1`: 124 to 127 °C. The same measure for `Nc1ccc(-c2ncn(-c3ccc(OC(F)(F)F)cc3)n2)cc1`: 147 °C. In the case of `COC(=O)c1cc(OC)c(N(C)C(C)=O)c(OC)c1`, the melting point lay within 115 to 116 °C.

`Fc1nc(NCc2ccccn2)c2nc[nH]c2n1` showed a melting point of 217 to 220 °C. For `CCn1c(-c2ccc(Cl)c(S(=O)(=O)N(C)C)c2)csc1=Nc1ccccc1C`, the melting point was 164 to 166 °C.

`COc1ccc(C=O)cc1OCc1nc(-c2ccco2)oc1C`: the melting point lay within 125 to 126 °C. The same measure for `O=C(O)CCCOc1cccc(C2CCCCC2)c1`: 83 to 84 °C. The same measure for `OCc1csc(N2CCCC2)n1`: 146 to 148 °C; for `CCCC(=O)NC(C#N)C(=O)OCC` (stereo not given): 110 °C; for `COc1ccc(-c2ccc3nn(-c4cc(C(C)(C)CC(C)(C)C)cc(C(C)(C)c5ccccc5)c4O)nc3c2)cc1`: 129 to 131 °C. The same measure for `NC(CO)c1ccc(OC(F)F)cc1` (stereo not given): 54 to 57 °C; for `C=C(C)COc1ccc2c(=O)c(C)c(-c3ccccc3)oc2c1C(=O)C=Cc1cccc(OC)c1`: 131 to 134 °C. On to `O=C(NCC12CC3CC(CC(C3)C1)C2)c1cccc(F)c1Cl`, for which the melting point is 149 to 151 °C. The same measure for `O=C(Nc1ccccc1)NC1CCCCC1`: 164 °C; for `Cc1nc(N)c2nc(C)n(CCOc3ccccc3)c2c1C`: 176 to 177 °C. The same measure for `CC1(C)CC(=O)Nc2cc3nc(-c4cccc(Cl)c4)[nH]c3cc21`: 190 to 193 °C; for `Cc1cc(=O)[nH]c2ccc(OCCCN3CCN(Cc4ccc(F)cc4)CC3)cc12`: 178 to 180 °C. The same measure for `CC(Oc1ccnc2ccccc12)C(=O)Nc1ccc(Cl)cc1` (stereo not given): 170 to 172 °C; for `Cc1nc2ccc3c(c2s1)C(=CC#N)CC3`: 194 to 195 °C; for `CCCCC(NS(=O)(=O)c1ccc(Cl)cc1)C(=S)Nc1ccc(CCC(=O)OC)cc1` (racemic): 87 to 89 °C. `CCCCCCc1cnc(-c2ccc(C#N)cc2)nc1`: the melting point lay within 53.5 to 54.5 °C. The same measure for `COC(=O)COC(=O)c1ccc(OCC(=O)OC)cc1`: 53 to 57 °C; for `O=Cc1cc(O)c(O)cc1Cl`: 217 to 218 °C; for `COCc1c(C=O)ncc2c1c1c(OCc3ccccc3)cccc1n2S(=O)(=O)c1ccc(C)cc1`: 125 to 127 °C.

On to `CCOC(=O)N(Cc1ccccc1)Cn1cc(Cl)cnc1=O`, for which the melting point stood at 143 °C. The same measure for `Nc1nc2ccc(Cl)cc2nc1N`: 290 °C. The same measure for `O=C1OC(=O)c2c(C(F)(F)F)c3ccccc3c3cccc1c23`: 235 to 237 °C; for `CCOC(=O)C1CCCCN1C(=O)Nc1cc(C(=O)OC(C)C)c(Cl)cc1F` (stereo not given): 83 to 85 °C; for `CNC(=O)N(O)C(C)C#Cc1ccc(Cl)cc1` (stereo not given): 151 to 153 °C. The same measure for `CCOC(=O)c1ncc(-c2cccs2)s1`: 68 to 69 °C; for `Cc1ccc(C(C)C)n1N`: 21 to 24 °C; for `C=CC[C@H]1Cc2c(OCOC)cccc2C(=O)O1`: 74 to 75 °C. `CCOC(=O)Cn1cc(C(=O)NCc2ccc(Cl)cc2Cl)c(OCC)n1` displayed a melting point of 120 to 121 °C. The same measure for `COc1ccc(-c2nc3ccc(OC(F)(F)F)cc3[nH]2)cc1`: 200 to 202 °C; for `CCOC(=O)CCc1c(OCc2ccc(OCc3nc(-c4ccccc4)oc3C)cc2)ccc2ccccc12`: 86 to 87 °C. The same measure for `OC/C=C/C=C/c1ccc(OCC(F)(F)C(F)F)cc1`: 95 to 97 °C; for `O=C(OCc1ccccc1)N1CCC(c2cc3ccccc3c(=O)[nH]2)CC1`: 179 to 181 °C. The same measure for `O=C(Nc1ccncc1)c1ccc(-n2nc(C(F)(F)F)cc2C(F)(F)F)cc1`: 234 to 235 °C; for `Cc1cccc(N2Cc3ccccc3P2(=O)c2ccccc2)c1` (stereo not given): 190 to 192 °C. On to `CCCOc1c2nc(C(=O)OC)cc(O)c2cc2c(O)cc(C(=O)OC)nc12`, for which the melting point lay in the range of 245 to 247 °C. The same measure for `O=C(c1ccccc1)N1CCC(O)CC1`: 91.5 to 92 °C; for `Oc1cc(Br)c2oc(-c3ccc(O)c(F)c3)nc2c1`: 265 to 267 °C; for `Cn1cnc(COc2nn3c(-c4ccccc4F)nnc3cc2C23CCC(C2)C3)n1`: 170 to 172 °C. Turning to `O=C(NC12CC3CC(CC(C3)C1)C2)c1nc(Br)n(-c2ccccc2)c1Br`, the melting point fell in the range of 228 to 231 °C. The same measure for `CCOC(=O)c1c(C(F)F)nc(C(F)(F)F)c(C(=O)OCC)c1N`: 29 to 30 °C; for `O=C(C(=O)c1ccc(F)cc1)c1ccncc1`: 84 to 86 °C.

Compound `CC(C)CNC(=O)C1=C(C(=O)Nc2cc(OC3CCC(C)C3)c(Cl)cc2F)CCCC1` (stereo not given) came in with a melting point of 144 to 147 °C. The same measure for `CC(C)(O)Cc1c(Br)cnc2c(NC(=O)c3c(Cl)cccc3Cl)cccc12`: 260 to 262 °C; for `O=C(NCCCCOc1ccc(-n2ccnc2)cc1)c1ccc(F)cc1`: 122 to 123 °C; for `O=C1CCC(CSc2ccccc2)C(=O)N1CN1CCCCC1` (stereo not given): 63 to 66 °C. The same measure for `CCCCS(=O)c1ccc(C=O)nc1` (stereo not given): 90 to 91 °C. The same measure for `COC(=O)c1ccc2nc(C)n(Cc3ccc(C=C4SC(=O)NC4=O)cc3Cl)c2n1`: more than 300 °C; for `CC(C)(C)C(=O)C=CC1C(C(=O)OC(C#N)c2cccc(Oc3ccccc3)c2)C1(C)C` (stereo not given): 89 °C. `O=c1[nH]c2ccc(Br)cc2cc1Cc1ccccc1` yielded a melting point of 263 °C. The same measure for `Cc1ccccc1OC(Cc1ccc(OCCN(C)c2nc3ccccc3o2)cc1)C(=O)O` (stereo not given): 142 to 143 °C. Compound `CC(Oc1cc(C(F)(F)F)cc(C(F)(F)F)c1)C(N)=O` (stereo not given) showed a melting point of 84 to 85 °C. In turn, `Nc1ccc(C(=O)O)c2c1OCCO2` showed a melting point of 186 °C. The same measure for `COC(=O)C1=C(C)NC(C)=C(C(=O)OCCN2CCN(C(c3ccc(F)cc3)c3ccc(F)cc3)CC2)C1c1ccccc1[N+](=O)[O-]` (stereo not given): 90 to 93 °C; for `CCc1cc(=O)c(I)c(CC)[nH]1`: 225 to 227 °C. The same measure for `CCn1nc(Cl)c(CS(=O)(=O)C2=NOC(C)(C)C2)c1Cl`: 105 to 107 °C. The same measure for `O=C(O)Cn1c(=O)sc2ccc(O)cc21`: 217 to 221 °C; for `CCOC(=O)C(NC(=O)OCc1ccccc1)OCC` (stereo not given): 66 to 68 °C; for `CSCc1cn(C)c2c(Cl)cccc2c1=O`: 146 to 148 °C.

In turn, `CN1CCC(CNc2ncc3ncnc(Nc4ccc(F)c(Cl)c4)c3n2)CC1` registered a melting point of 198 to 201 °C. The same measure for `Cc1cc(-c2nnc3c4ccccc4c(OCc4ccn(C)n4)nn23)no1`: 243 to 244 °C; for `NC(=O)c1nc(-c2cccc(O)c2)nc2c1[nH]c(=O)n2-c1c(F)cccc1F`: 355 to 358 °C. The same measure for `CCCCCCCCCCCCCCCCS(=O)(=O)Nc1ccc(OC)c(NC(=O)CC(=O)C2(C)COC(C)(C)OC2)c1`: 68 to 70 °C; for `CCOC(=O)COc1ccc(-c2nc3ncccc3[nH]2)c(O)c1`: 198 °C. The same measure for `Cc1cc(O)ccc1-n1cc(C(=O)O)c(=O)cc1C1CCC(N(C)C)CC1` (stereo not given): 207 to 215 °C.
